Here are results for three compounds from patent US12358927B2, “IRAK4 inhibitor crystal and preparation method therefor” (CHIA TAI TIANQING PHARMACEUTICAL GROUP CO., LTD., priority 2020, dated 2025).

Values after ≈ are worked out from the molar mass of the structure shown. Values joined by “and” are separate entries in the source; they are usually repeats but may differ in a detail not shown here. Equal values may be shown once. Read-outs that look alike come from different tables or passages of the source.

One may read the bioavailability as the share of a dose that reaches the circulation, judged against a reference dose that is usually intravenous. In general, Tmax refers to the time from dosing to the highest level.

A short description of data set [1]: Study of approximate solubility in water. To be noted: room temperature, dissolution determined by the naked eye. In kind it is physicochemical. As for the experimental part: About 2.0 mg of samples were weighed and added into 1.5 mL glass vials, water was gradually added using pipetting gun, and the mixture was dissolved by sonication as appropriate. The test was conducted at room temperature and the dissolution was determined by the naked eye, and the approximate solubility results are shown in Table 10.

Data set [2] can be described thus: In vivo pharmacokinetic study in SD rats. The settings on record: rat, plasma, SD male rats, oral, 30 mg/kg. As for the experimental part: The test compound was mixed with 5% dimethyl sulfoxide/10% polyoxyethylene stearate/85% aqueous solution, and the mixture was vortexed and sonicated to prepare a 3 mg/mL clear solution for later use. SD male rats aged 7 to 10 weeks were selected and orally administered with a dose of the candidate compound at 30 mg/kg. Whole blood was collected at certain time points, and plasma was separated. The drug concentration was measured by LC-MS/MS, and pharmacokinetic parameters were calculated using Phoenix WinNonlin software (Pharsight, USA).

Data set [3] is described as follows: Equilibrium solubility experiment for biological media and pH buffers. In kind it is physicochemical. As for the experimental part: The taken samples were centrifuged, the supernatant of the samples was taken and diluted by a proper time after pH was determined, and the concentration of the supernatant was determined by UPLC.
Diluent: acetonitrile:water (1:1)
Mobile phase A: 0.1% aqueous FA solution
Mobile phase B: 0.1% FA ACN/MeOH (1:1) solution
Two parts of control solutions were prepared in parallel, and labeled STD #1 and STD #2, respectively.
The control solution STD #1 was taken and diluted by 1, 5, 10, 100, 1000, 2000 times, and recorded as linear solutions L1, L2, L3, L4, L5 and L6. The sample diluted by 2000 times was recorded as LOQ.

The nature of data set [4]: Study of hygroscopicity (25° C., 80% relative humidity, 24 h). The class given is physicochemical. The settings on record: relative humidity 80%. From the text:
Calculation: weight gain %=(m3−m2)/(m2−m1)×100%

Data set [5] in a line: Study of solid stability (accelerated conditions, XRPD). The settings on record: 40° C./75% RH 2 and 3 months; 60° C./75% RH 1 and 2 months. The class given is physicochemical. As for the experimental part: The samples were placed at (40° C./75% RH) for 2 months and 3 months and at (60° C./75% RH) for 1 month and 2 months, and the placed samples were characterized by XRPD. The test results were compared with the initial test results of 0 days.

Data set [6] is described as follows: Study of polycrystalline forms (solution suspension crystallization, XRPD). The settings on record: 13 single or mixed solvents of Table 7, stirred 2 days at 50° C. The class given is physicochemical. As for the experimental part: Then, samples of the aforementioned suspensions were stirred for 2 days on a constant-temperature heating stirrer at 50° C. The reaction system was cooled to room temperature, filtered and concentrated to remove the solvent, to give samples, and XRPD testing was performed on the samples.

As for `COC(=O)N1CCN([C@H]2CC[C@H](Nc3nc(Nc4cnn(C5CCOCC5)c4)nc4snc(C)c34)CC2)CC1` [Compound of formula (I)], in data set [1], the “Approximate solubility” value is less than 1000 µg/mL.

Take `COC(=O)N1CCN([C@H]2CC[C@H](Nc3nc(Nc4cnn(C5CCOCC5)c4)nc4snc(C)c34)CC2)CC1`: the bioavailability in data set [2] (read-out: Bioavailability F (%)) worked out at 62%. In addition, the AUC(0-t) in data set [2] (read-out: Area under plasma concentration-time curve AUC0-last) is 10.6 µM·h. Besides, the Cmax in data set [2] (read-out: Peak concentration Cmax) amounted to 1580 nM. In data set [2] (read-out: Time to peak Tmax), the Tmax came out at 3 h. Further, the solubility at 24 h was 1.3 mg/mL (≈ 2.34 mM) in data set [3] (aqueous buffer, thermodynamic from solid, pH = 6.00 buffer, 37° C., 24 h, pH (24 h) 5.12, white suspension, read-out: Solubility (mg/mL) _24 hr); 10.5 mg/mL (≈ 18.9 mM) in data set [3] (pH 1.77, simulated gastric fluid, thermodynamic from solid, SGF, 37° C., 24 h, pH (24 h) 1.77, opalescent and opaque, read-out: Solubility (mg/mL) _24 hr); more than 10 mg/mL in data set [3] (pH 2.00 and pH 3.8 buffers, 37 °C, simulated gastric fluid, thermodynamic from solid, at pH=1.00, pH=2.00, pH=3.8, water and SGF, read-out: solubility); 10.2 mg/mL (≈ 18.4 mM) in data set [3] (pH 3.8, aqueous buffer, thermodynamic from solid, pH = 3.80 buffer, 37° C., 24 h, pH (24 h) 2.61, opalescent and opaque, read-out: Solubility (mg/mL) _24 hr); 10.3 mg/mL (≈ 18.5 mM) in data set [3] (pH 4.5, aqueous buffer, thermodynamic from solid, pH = 4.50 buffer, 37° C., 24 h, pH (24 h) 4.12, white suspension, read-out: Solubility (mg/mL) _24 hr); 1.32 mg/mL (≈ 2.38 mM) in data set [3] (pH 4.75, thermodynamic from solid, FeSSIF, 37° C., 24 h, pH (24 h) 4.75, white suspension, read-out: Solubility (mg/mL) _24 hr). The solubility at 24 h in data set [3] (pH 5.5, aqueous buffer, thermodynamic from solid, pH = 5.50 buffer, 37° C., 24 h, pH (24 h) 5.26, white suspension, read-out: Solubility (mg/mL) _24 hr) was 0.31 mg/mL (≈ 0.558 mM); in data set [3] (pH 6.04, thermodynamic from solid, FaSSIF, 37° C., 24 h, pH (24 h) 6.04, white suspension, read-out: Solubility (mg/mL) _24 hr), 0.14 mg/mL (≈ 0.252 mM); in data set [3] (pH 6.8, aqueous buffer, thermodynamic from solid, pH = 6.80 buffer, 37° C., 24 h, pH (24 h) 6.57, white suspension, read-out: Solubility (mg/mL) _24 hr) it was 0.05 mg/mL (≈ 0.09 mM); in data set [3] (pH 7.4, aqueous buffer, thermodynamic from solid, pH = 7.40 buffer, 37° C., 24 h, pH (24 h) 7.07, white suspension, read-out: Solubility (mg/mL) _24 hr) it was 0.0012 mg/mL (≈ 0.00216 mM); in data set [3] (simulated gastric fluid, thermodynamic from solid, pH = 1.00 buffer, 37° C., 24 h, pH (24 h) 1.11, opalescent and opaque, read-out: Solubility (mg/mL) _24 hr) it was 10.5 mg/mL (≈ 18.9 mM); in data set [3] (simulated gastric fluid, thermodynamic from solid, pH = 2.00 buffer, 37° C., 24 h, pH (24 h) 1.90, opalescent and opaque, read-out: Solubility (mg/mL) _24 hr) it was 10.5 mg/mL (≈ 18.9 mM). The solubility at 24 h in data set [3] (water, pH 2.29, water, thermodynamic from solid, H2O, 37° C., 24 h, pH (24 h) 2.29, opalescent and opaque, read-out: Solubility (mg/mL) _24 hr) came to 9.12 mg/mL (≈ 16.4 mM).

As for `COC(=O)N1CCN([C@H]2CC[C@H](Nc3nc(Nc4cnn(C5CCOCC5)c4)nc4snc(C)c34)CC2)CC1` [Crystalline form A of the compound of formula (II)], the “Determination result (hygroscopicity)” value in data set [4] was “Slightly hygroscopic (0.2% to 2% weight gain)”. In addition, the “Weight gain % Average value” in data set [4] (average of two samples) was 1.3%. Also, the Weight gain % in data set [4] (single samples No. 1 and 2) was 1.34% and 1.22%. The “solubility description (Chinese pharmacopoeia)” value is recorded as “minimally soluble” in data set [3] (at pH=4.50); “very slightly soluble” in data set [3] (at pH=5.00 and FaSSIF); “slightly soluble” in data set [3] (at pH=6.00 and FeSSIF); “almost insoluble or insoluble” in data set [3] (at pH=6.80 and pH=7.40). Further, the “crystal form under all stability conditions” value in data set [5] is “unchanged”. Also, the “crystalline form after suspension stirring (XRPD)” value in data set [6] is recorded as “all samples were the crystalline form A of the compound of formula (II)”. Further, the “Approximate solubility” value in data set [1] was more than 100000 µg/mL.
